The data set is classed as physicochemical. The source says: The dietary butyrate can comprise a phenylalanine amide derivative of butyric acid. In fact, use of a phenylalanine amide derivative of butyric acid provides for improved organoleptic and physicochemical characteristics as it is an odorless and colorless solid crystalline powder. Furthermore, the purification of phenylalanine amide derivatives of butyric acid may be particularly economical for purification in terms of the cost to purify versus the yield of compound ratio. Accordingly, in certain embodiments, the dietary butyrate may comprise an acid-stable butyrate amide with the amino acid phenylalanine, such as phenylalanine-butyramide (“FBA”). […] Moreover, the solubility of FBA in water is satisfactory as it produces clear solutions up to the concentration 0.1 M and suspensions at higher concentrations. Accordingly, FBA is a suitable form of dietary butyrate that may be incorporated into powdered nutritional compositions that are to be reconstituted with water or some other type of liquid.

For phenylalanine-butyramide [FBA], the “solubility in water (concentration up to which clear solutions are produced)” value was at most 100 mM; the “stability to acids and alkalis” value is “stable to acids and alkalis”.
